Measured values taken from doi:10.1101/2024.08.13.607785v1 (biorxiv, 2024).
Where two headings read alike, the source gives them in different places.

Assays:
Assay in all cases: biochemical
Parameters in all cases: species or system human cell line lysate
[1] = target: Mitogen-activated protein kinase kinase kinase 1 ; MAP3K1 ; Q13233 (Homo sapiens, UniProt Q13233)
[2] = target: DNA-dependent protein kinase catalytic subunit ; PRKDC ; P78527 (Homo sapiens, UniProt P78527)
[3] = target: RAC-gamma serine/threonine-protein kinase ; AKT3 ; Q9Y243 (Homo sapiens, UniProt Q9Y243)
[4] = target: Protein kinase C iota type ; PRKCI ; P41743 (Homo sapiens, UniProt P41743)
[5] = target: Phosphorylase b kinase gamma catalytic chain, liver/testis isoform ; PHKG2 ; P15735 (Homo sapiens, UniProt P15735)
[6] = target: Proto-oncogene tyrosine-protein kinase receptor Ret ; RET ; P07949 (Homo sapiens, UniProt P07949)
[7] = target: Casein kinase I isoform gamma-2 ; CSNK1G2 ; P78368 (Homo sapiens, UniProt P78368)
[8] = target: RAC-beta serine/threonine-protein kinase ; AKT2 ; P31751 (Homo sapiens, UniProt P31751)
[9] = target: cAMP-dependent protein kinase catalytic subunit alpha ; PRKACA ; P17612 (Homo sapiens, UniProt P17612)
[10] = target: Serine/threonine-protein kinase TAO3 ; TAOK3 ; Q9H2K8 (Homo sapiens, UniProt Q9H2K8)
[11] = target: Dual specificity mitogen-activated protein kinase kinase 6 ; MAP2K6 ; P52564 (Homo sapiens, UniProt P52564)
[12] = target: Ephrin type-A receptor 2 ; EPHA2 ; P29317 (Homo sapiens, UniProt P29317)
[13] = target: Wee1-like protein kinase ; WEE1 ; P30291 (Homo sapiens, UniProt P30291)
[14] = target: Mitogen-activated protein kinase kinase kinase 6 ; MAP3K6 ; O95382 (Homo sapiens, UniProt O95382)
[15] = target: Phosphatidylinositol 4-kinase alpha ; PI4KA ; P42356 (Homo sapiens, UniProt P42356)
[16] = target: Tyrosine-protein kinase JAK2 ; JAK2 ; O60674 (Homo sapiens, UniProt O60674)
[17] = target: Isoform Beta of cGMP-dependent protein kinase 1 ; PRKG1 ; Q13976-2 (Homo sapiens, UniProt Q13976)
[18] = target: Citron Rho-interacting kinase ; CIT ; O14578 (Homo sapiens, UniProt O14578)
[19] = target: Interleukin-1 receptor-associated kinase 4 ; IRAK4 ; Q9NWZ3 (Homo sapiens, UniProt Q9NWZ3)
[20] = target: Phosphatidylinositol 5-phosphate 4-kinase type-2 gamma ; PIP4K2C ; Q8TBX8 (Homo sapiens, UniProt Q8TBX8)
[21] = target: Leucine-rich repeat serine/threonine-protein kinase 2 ; LRRK2 ; Q5S007 (Homo sapiens, UniProt Q5S007)
[22] = target: Inhibitor of nuclear factor kappa-B kinase subunit epsilon ; IKBKE ; Q14164 (Homo sapiens, UniProt Q14164)
[23] = target: Serine/threonine-protein kinase mTOR ; MTOR ; P42345 (Homo sapiens, UniProt P42345)
[24] = read-out: BAY-1143572 (10 µM) / %Intensity relative to DMSO
[25] = read-out: BAY-1251152 (10 µM) / %Intensity relative to DMSO

Proto-oncogene tyrosine-protein kinase receptor Ret ; RET ; P07949, sequence (P07949 whole entry, canonical isoform): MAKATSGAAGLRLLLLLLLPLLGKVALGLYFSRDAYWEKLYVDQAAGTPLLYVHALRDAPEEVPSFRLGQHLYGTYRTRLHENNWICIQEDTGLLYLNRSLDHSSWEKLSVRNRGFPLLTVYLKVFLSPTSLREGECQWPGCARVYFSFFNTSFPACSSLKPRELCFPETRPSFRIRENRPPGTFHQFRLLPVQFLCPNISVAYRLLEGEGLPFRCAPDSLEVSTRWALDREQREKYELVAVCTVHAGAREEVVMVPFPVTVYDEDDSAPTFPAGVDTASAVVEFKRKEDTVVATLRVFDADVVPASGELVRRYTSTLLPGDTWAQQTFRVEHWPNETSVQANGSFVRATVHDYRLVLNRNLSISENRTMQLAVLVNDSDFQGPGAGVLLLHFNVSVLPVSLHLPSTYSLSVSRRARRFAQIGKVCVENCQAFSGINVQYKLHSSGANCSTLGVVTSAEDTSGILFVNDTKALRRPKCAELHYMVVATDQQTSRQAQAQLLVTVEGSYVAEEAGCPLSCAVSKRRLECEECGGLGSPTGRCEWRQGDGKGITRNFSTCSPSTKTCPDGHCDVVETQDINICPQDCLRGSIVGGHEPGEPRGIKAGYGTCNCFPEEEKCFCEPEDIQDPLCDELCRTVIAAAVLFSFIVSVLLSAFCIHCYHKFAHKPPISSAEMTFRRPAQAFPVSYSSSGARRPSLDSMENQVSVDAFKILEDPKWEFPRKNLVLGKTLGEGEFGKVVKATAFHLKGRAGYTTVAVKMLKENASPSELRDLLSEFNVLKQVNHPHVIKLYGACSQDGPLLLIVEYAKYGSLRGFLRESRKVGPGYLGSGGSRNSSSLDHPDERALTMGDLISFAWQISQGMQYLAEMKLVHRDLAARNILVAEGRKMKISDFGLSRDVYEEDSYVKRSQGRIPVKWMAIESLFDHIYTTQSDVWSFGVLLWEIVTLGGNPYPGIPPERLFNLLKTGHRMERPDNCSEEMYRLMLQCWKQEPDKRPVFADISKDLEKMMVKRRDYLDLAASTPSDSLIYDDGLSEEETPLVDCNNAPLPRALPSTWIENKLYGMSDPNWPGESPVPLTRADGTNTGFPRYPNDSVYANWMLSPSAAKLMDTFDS
Mitogen-activated protein kinase kinase kinase 1 ; MAP3K1 ; Q13233, sequence (Q13233 whole entry): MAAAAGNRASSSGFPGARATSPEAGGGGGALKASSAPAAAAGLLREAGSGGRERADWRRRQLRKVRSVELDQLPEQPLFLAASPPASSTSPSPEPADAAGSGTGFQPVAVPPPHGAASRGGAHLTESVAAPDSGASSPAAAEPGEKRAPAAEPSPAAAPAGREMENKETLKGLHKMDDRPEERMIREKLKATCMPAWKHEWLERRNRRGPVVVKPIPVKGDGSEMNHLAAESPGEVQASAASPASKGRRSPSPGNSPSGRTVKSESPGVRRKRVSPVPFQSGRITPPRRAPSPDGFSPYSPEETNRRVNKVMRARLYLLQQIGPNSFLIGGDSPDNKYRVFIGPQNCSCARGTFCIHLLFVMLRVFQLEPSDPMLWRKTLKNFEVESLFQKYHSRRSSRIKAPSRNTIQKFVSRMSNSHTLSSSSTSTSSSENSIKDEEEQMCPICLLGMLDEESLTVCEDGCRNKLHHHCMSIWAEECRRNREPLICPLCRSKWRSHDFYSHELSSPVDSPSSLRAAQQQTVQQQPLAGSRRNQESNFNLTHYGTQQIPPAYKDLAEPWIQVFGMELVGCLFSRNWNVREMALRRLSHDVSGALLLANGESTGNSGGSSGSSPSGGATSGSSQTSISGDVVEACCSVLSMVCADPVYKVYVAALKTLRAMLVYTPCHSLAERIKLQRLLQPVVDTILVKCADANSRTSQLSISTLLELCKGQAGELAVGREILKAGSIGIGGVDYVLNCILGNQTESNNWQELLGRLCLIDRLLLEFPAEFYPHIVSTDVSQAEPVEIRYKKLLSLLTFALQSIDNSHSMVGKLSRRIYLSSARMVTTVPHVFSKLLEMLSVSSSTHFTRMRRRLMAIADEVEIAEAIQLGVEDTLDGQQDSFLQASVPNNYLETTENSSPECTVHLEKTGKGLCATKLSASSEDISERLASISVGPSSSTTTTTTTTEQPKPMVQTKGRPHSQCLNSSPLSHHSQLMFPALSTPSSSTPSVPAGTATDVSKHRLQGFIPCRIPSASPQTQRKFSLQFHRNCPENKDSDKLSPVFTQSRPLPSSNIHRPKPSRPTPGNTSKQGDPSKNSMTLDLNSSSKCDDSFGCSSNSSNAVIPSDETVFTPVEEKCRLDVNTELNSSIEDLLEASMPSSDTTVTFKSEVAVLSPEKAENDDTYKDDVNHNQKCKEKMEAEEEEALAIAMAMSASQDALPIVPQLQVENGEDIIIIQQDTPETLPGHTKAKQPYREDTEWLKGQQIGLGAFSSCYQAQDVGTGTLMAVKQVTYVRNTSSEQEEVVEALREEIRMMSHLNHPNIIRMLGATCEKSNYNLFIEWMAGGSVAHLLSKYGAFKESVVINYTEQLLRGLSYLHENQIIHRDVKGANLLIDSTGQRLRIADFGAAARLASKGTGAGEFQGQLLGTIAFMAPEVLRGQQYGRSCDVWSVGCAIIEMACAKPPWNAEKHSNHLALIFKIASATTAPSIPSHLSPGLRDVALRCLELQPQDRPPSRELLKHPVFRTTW
Dual specificity mitogen-activated protein kinase kinase 6 ; MAP2K6 ; P52564, sequence (P52564 whole entry): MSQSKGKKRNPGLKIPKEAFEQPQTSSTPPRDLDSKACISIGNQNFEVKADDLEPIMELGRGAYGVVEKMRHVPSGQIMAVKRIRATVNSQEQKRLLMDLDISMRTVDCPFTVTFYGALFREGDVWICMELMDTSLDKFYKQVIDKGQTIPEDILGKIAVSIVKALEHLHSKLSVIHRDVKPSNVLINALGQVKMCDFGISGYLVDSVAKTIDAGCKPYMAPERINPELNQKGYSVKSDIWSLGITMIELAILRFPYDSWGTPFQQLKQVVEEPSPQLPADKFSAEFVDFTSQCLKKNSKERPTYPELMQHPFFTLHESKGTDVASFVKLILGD
Tyrosine-protein kinase JAK2 ; JAK2 ; O60674, sequence (O60674 whole entry, canonical isoform): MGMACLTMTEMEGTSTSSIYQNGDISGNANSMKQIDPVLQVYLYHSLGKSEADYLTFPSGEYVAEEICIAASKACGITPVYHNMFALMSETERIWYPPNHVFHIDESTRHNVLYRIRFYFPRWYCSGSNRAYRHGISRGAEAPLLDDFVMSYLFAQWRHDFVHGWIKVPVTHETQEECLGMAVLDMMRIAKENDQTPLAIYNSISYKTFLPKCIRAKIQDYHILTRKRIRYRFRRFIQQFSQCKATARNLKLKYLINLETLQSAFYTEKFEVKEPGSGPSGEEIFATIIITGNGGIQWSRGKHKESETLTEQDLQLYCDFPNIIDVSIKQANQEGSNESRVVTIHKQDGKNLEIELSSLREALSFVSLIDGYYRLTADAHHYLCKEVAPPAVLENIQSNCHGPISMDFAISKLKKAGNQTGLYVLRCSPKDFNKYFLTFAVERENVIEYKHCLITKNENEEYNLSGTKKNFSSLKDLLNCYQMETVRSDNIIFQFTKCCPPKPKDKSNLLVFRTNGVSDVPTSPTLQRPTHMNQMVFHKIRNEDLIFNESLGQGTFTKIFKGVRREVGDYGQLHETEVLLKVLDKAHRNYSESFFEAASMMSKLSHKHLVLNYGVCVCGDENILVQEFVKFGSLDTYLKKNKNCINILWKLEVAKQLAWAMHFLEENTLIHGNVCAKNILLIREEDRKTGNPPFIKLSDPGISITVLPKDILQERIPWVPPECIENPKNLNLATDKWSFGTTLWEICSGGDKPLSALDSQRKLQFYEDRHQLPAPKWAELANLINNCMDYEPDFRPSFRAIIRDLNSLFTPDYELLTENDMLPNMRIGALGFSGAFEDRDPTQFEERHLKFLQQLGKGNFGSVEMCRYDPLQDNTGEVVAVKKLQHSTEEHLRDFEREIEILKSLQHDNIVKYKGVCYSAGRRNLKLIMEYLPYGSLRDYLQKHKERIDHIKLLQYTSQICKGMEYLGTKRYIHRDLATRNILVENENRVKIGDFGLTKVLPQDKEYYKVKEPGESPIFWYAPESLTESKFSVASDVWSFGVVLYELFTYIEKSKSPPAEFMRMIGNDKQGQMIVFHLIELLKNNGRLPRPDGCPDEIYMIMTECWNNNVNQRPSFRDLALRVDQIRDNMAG
Interleukin-1 receptor-associated kinase 4 ; IRAK4 ; Q9NWZ3, sequence (Q9NWZ3 whole entry): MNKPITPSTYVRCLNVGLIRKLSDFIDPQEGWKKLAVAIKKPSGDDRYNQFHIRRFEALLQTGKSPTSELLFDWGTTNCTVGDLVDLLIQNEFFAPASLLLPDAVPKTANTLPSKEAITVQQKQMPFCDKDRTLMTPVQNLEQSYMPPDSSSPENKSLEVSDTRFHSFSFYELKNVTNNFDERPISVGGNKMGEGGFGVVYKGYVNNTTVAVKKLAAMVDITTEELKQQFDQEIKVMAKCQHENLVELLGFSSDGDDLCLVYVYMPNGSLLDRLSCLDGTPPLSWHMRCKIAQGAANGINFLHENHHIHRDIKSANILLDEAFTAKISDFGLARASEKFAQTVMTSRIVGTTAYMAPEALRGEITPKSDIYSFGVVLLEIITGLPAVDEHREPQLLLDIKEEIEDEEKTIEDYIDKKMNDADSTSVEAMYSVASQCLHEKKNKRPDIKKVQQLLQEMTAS
Casein kinase I isoform gamma-2 ; CSNK1G2 ; P78368, sequence (P78368 whole entry, canonical isoform): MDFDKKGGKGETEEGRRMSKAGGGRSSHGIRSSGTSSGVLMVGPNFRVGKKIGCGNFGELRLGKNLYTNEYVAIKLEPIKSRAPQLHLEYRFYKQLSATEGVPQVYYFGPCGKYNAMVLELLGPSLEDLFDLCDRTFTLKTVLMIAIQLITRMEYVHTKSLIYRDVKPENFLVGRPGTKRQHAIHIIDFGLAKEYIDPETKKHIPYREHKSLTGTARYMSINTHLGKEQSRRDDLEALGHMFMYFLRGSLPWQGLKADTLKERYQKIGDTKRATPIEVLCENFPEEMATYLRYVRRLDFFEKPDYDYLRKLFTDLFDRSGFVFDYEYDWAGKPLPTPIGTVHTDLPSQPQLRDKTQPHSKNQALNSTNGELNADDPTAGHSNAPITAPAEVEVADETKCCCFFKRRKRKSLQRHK

## COc1cc(F)ccc1-c1ncnc(Nc2cccc(C[S@](C)(=N)=O)c2)n1 [BAY-1143572]
[1]; [24]
  remaining activity at 10 µM: 73.3%
[2]; [24]
  remaining activity at 10 µM: 106%
[3]; [24]
  remaining activity at 10 µM: 125%
[4]; [24]
  remaining activity at 10 µM: 108%
[5]; [24]
  remaining activity at 10 µM: 107%
[6]; [24]
  remaining activity at 10 µM: 97%
[7]; [24]
  remaining activity at 10 µM: 137%
[8]; [24]
  remaining activity at 10 µM: 117%
[9]; [24]
  remaining activity at 10 µM: 115%
[10]; [24]
  remaining activity at 10 µM: 111%
[11]; [24]
  remaining activity at 10 µM: 142%
[12]; [24]
  remaining activity at 10 µM: 84.9%
[13]; [24]
  remaining activity at 10 µM: 101%
[14]; [24]
  remaining activity at 10 µM: 103%
[15]; [24]
  remaining activity at 10 µM: 96.8%
[16]; [24]
  remaining activity at 10 µM: 95.1%
[17]; [24]
  remaining activity at 10 µM: 130%
[18]; [24]
  remaining activity at 10 µM: 99.8%
[19]; [24]
  remaining activity at 10 µM: 121%
[20]; [24]
  remaining activity at 10 µM: 110%
[21]; [24]
  remaining activity at 10 µM: 109%
[22]; [24]
  remaining activity at 10 µM: 110%
[23]; [24]
  remaining activity at 10 µM: 98.9%

## COc1cc(F)ccc1-c1cc(Nc2cc(CS(C)(=N)=O)ccn2)ncc1F (stereo not shown) [BAY-1251152]
[1]; [25]
  remaining activity at 10 µM: 82.4%
[2]; [25]
  remaining activity at 10 µM: 107%
[3]; [25]
  remaining activity at 10 µM: 127%
[4]; [25]
  remaining activity at 10 µM: 99.3%
[5]; [25]
  remaining activity at 10 µM: 100%
[6]; [25]
  remaining activity at 10 µM: 87.9%
[7]; [25]
  remaining activity at 10 µM: 131%
[8]; [25]
  remaining activity at 10 µM: 119%
[9]; [25]
  remaining activity at 10 µM: 101%
[10]; [25]
  remaining activity at 10 µM: 84%
[11]; [25]
  remaining activity at 10 µM: 123%
[12]; [25]
  remaining activity at 10 µM: 103%
[13]; [25]
  remaining activity at 10 µM: 102%
[14]; [25]
  remaining activity at 10 µM: 103%
[15]; [25]
  remaining activity at 10 µM: 100%
[16]; [25]
  remaining activity at 10 µM: 95.9%
[17]; [25]
  remaining activity at 10 µM: 117%
[18]; [25]
  remaining activity at 10 µM: 92.5%
[19]; [25]
  remaining activity at 10 µM: 112%
[20]; [25]
  remaining activity at 10 µM: 107%
[21]; [25]
  remaining activity at 10 µM: 107%
[22]; [25]
  remaining activity at 10 µM: 112%
[23]; [25]
  remaining activity at 10 µM: 103%
